This is an account of results in patent US8017612B2, “Piperazine compound and use thereof as a HCV polymerase inhibitor” (priority 2006, dated 2011).

Test [1] addresses T1, HCV polymerase (NS5B) type 1a (Hepatitis C virus genotype 1a, UniProt P26664).
T1 construct: made in house; host or cells: Escherichia coli (by the 'similar method' of the 1b enzyme)
As to the kind of experiment: Assay of enzyme (HCV polymerase) inhibitory activity, type 1a enzyme. The format is biochemical, HCV type 1a (cloned from the blood of patients). The method in brief: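 NS5B Δ47 C-term His6 (type 1a, 1.5 μg/ml); substrate RNA 5 μg/ml; ATP/GTP/CTP 50 μM, UTP 2 μM + [5,6-3H]UTP; Tris pH 7.5, MgCl2 5 mM; 25° C, 60 min. TCA/pyrophosphate stop, GF/B filter, scintillation. IC50 vs no-compound control.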

Test [2] addresses T2, HCV polymerase (NS5B) type 1b (Hepatitis C virus genotype 1b, UniProt P26663).
T2 construct: a region encoding NS5B (J Virol 1991 March, 65(3), 1105-13, 544 amino acids after deletion of 47 amino acids on the C-terminal); 6xHis (C); made in house; host or cells: Escherichia coli
Briefly: Assay of enzyme (HCV polymerase) inhibitory activity, type 1b enzyme. Type of test: biochemical, HCV BK strain (type 1b). The method in brief:
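Rxn: NS5B 1b (BK, ΔC47, His6) 0.5 μg/ml; substrate RNA 5 μg/ml; ATP/GTP/CTP 50 μM, UTP 2 μM + [5,6-3H]UTP; 20 mM Tris pH 7.5, 5 mM MgCl2, 50 mM NaCl, 1 mM EDTA/DTT. 25 °C, 60 min. Stop with TCA/pyrophosphate, filter, scintillation count; IC50 vs. untreated.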

Where [3] appears, read: HCV polymerase inhibitory activity IC50, 1a, type 1a enzyme.
Where [4] appears, read: HCV polymerase inhibitory activity IC50, 1b, type 1b enzyme.
Where [5] appears, read: HCV polymerase inhibitory activity (IC50), 1a, type 1a enzyme 1.5 μg/ml, 25° C., 60 min.
[6] abbreviates: HCV polymerase inhibitory activity (IC50), 1b, type 1b enzyme 0.5 μg/ml, 25° C., 60 min.

Some results are limits rather than exact numbers.

For the compound `O=C(O)c1ncc2sc(N3CCN(S(=O)(=O)c4ccc(OC(F)(F)F)cc4)[C@@H](C(=O)NCc4ccc(OC(F)(F)F)cc4)C3)nc2n1` [Example 1033, 2-[(R)-4-(4-trifluoromethoxy-benzenesulfonyl)-3-(4-trifluoromethoxy-benzylcarbamoyl)-piperazin-1-yl]-thiazolo[4,5-d]pyrimidine-5-carboxylic acid], the IC50 in test [1] (setting [3]) and in test [2] (setting [4]) was below 100 nM in each case.

For `O=C(NCc1ccc(OC(F)(F)F)cc1)[C@H]1CN(c2nc3ncncc3s2)CCN1S(=O)(=O)c1ccc(C(F)(F)F)cc1` [Example 886, (R)-4-thiazolo[4,5-d]pyrimidin-2-yl-1-(4-trifluoromethyl-benzenesulfonyl)-piperazine-2-carboxylic acid 4-trifluoromethoxy-benzylamide], the IC50 in test [1] (setting [3]) and in test [2] (setting [4]) was below 100 nM each time.

Regarding `CCCc1ccc(S(=O)(=O)N2CCN(c3nc(C(=O)O)c(C)s3)C[C@@H]2C(=O)NCc2ccc(C(C)C)cc2)cc1` [Example 434, 2-[(R)-3-(4-isopropyl-benzylcarbamoyl)-4-(4-propyl-benzenesulfonyl)-piperazin-1-yl]-5-methyl-thiazole-4-carboxylic acid], the IC50 in test [1] (setting [5]) and in test [2] (setting [6]) was below 100 nM throughout.

As for `O=C(NCc1ccc(OC(F)(F)F)cc1)[C@H]1CN(c2nc3nc(C(F)(F)F)ncc3s2)CCN1S(=O)(=O)c1ccc(OC(F)(F)C(F)F)cc1` [Example 1004, (R)-1-[4-(1,1,2,2-tetrafluoro-ethoxy)-benzenesulfonyl]-4-(5-trifluoromethyl-thiazolo[4,5-d]pyrimidin-2-yl)-piperazine-2-carboxylic acid 4-trifluoromethoxy-benzylamide], the IC50 in test [1] (setting [3]) and in test [2] (setting [4]) was below 100 nM in each case.

Consider `CC(C)(C)c1ncc2sc(N3CCN(S(=O)(=O)c4ccc(OC(F)(F)F)cc4)[C@@H](C(=O)NCc4ccc(OC(F)(F)F)cc4)C3)nc2n1` [Example 1024, (R)-4-(5-tert-butyl-thiazolo[4,5-d]pyrimidin-2-yl)-1-(4-trifluoromethoxy-benzenesulfonyl)-piperazine-2-carboxylic acid 4-trifluoromethoxy-benzylamide], for which the IC50 in test [1] (setting [3]) and in test [2] (setting [4]) was below 100 nM in each case.

Regarding `O=C(NCc1ccc(OC(F)F)cc1)[C@H]1CN(c2nn3cnnc3s2)CCN1S(=O)(=O)c1ccc(OC(F)(F)F)cc1` [Example 954, (R)-4-[1,2,4]triazolo[3,4-b][1,3,4]thiadiazol-6-yl-1-(4-trifluoromethoxy-benzenesulfonyl)-piperazine-2-carboxylic acid 4-difluoromethoxy-benzylamide], the IC50 in test [1] (setting [3]) and in test [2] (setting [4]) was below 100 nM in each case.

Consider `CCC(F)(F)c1ccc(CNC(=O)[C@H]2CN(c3nc4nc(C)nc(Cl)c4s3)CCN2S(=O)(=O)c2ccc(C(F)(F)F)cc2)cc1` [Example 934, (R)-4-(7-chloro-5-methyl-thiazolo[4,5-d]pyrimidin-2-yl)-1-(4-trifluoromethyl-benzenesulfonyl)-piperazine-2-carboxylic acid 4-(1,1-difluoro-propyl)-benzylamide], for which the IC50 in test [1] (setting [3]) and in test [2] (setting [4]) was below 100 nM in each case.

Regarding `COc1ccc(CNC(=O)[C@H]2CN(C(C)=O)CCN2S(=O)(=O)c2ccc(OC(F)(F)F)cc2)cc1` [Example 608, (R)-4-acetyl-1-(4-trifluoromethoxy-benzenesulfonyl)-piperazine-2-carboxylic acid 4-methoxy-benzylamide], the IC50 in test [1] (setting [5]) and in test [2] (setting [6]) was 100 to 1000 nM each time.

For the compound `CC(=O)N1CCN(S(=O)(=O)c2ccc(OC(F)(F)F)c(CCCC(=O)O)c2)[C@@H](C(=O)NCc2ccc(C(C)C)cc2)C1` [Example 11, 4-{5-[(R)-4-acetyl-2-(4-isopropyl-benzylcarbamoyl)-piperazine-1-sulfonyl]-2-trifluoromethoxy-phenyl}-butyric acid], the half-maximal inhibitory concentration (IC50) in test [1] (setting [5]) and in test [2] (setting [6]) was below 100 nM in each case.

Regarding `CC(=O)N1CCN(S(=O)(=O)c2ccc(C(C)C)cc2)C(C(=O)NCc2ccc(N(C)CCO)cc2)C1` (stereo not drawn) [Example 181, 4-acetyl-1-(4-isopropyl-benzenesulfonyl)-piperazine-2-carboxylic acid 4-[(2-hydroxy-ethyl)-methyl-amino]-benzylamide], the IC50 in test [1] (setting [5]) and in test [2] (setting [6]) was above 1000 nM throughout.

Turning to `O=C(O)c1ccc(N2CCN(S(=O)(=O)c3ccc(OC(F)(F)F)cc3)[C@@H](C(=O)NCc3ccc(OC(F)(F)F)cc3)C2)nc1` [Example 774, 6-[(R)-4-(4-trifluoromethoxy-benzenesulfonyl)-3-(4-trifluoromethoxy-benzylcarbamoyl)-piperazin-1-yl]-nicotinic acid], the IC50 in test [1] (setting [3]) and in test [2] (setting [4]) was below 100 nM throughout.

For `CCC(F)(F)c1ccc(CNC(=O)[C@H]2CN(c3cnc4c(n3)NS(=O)(=O)NC4)CCN2S(=O)(=O)c2ccc(OC(F)(F)F)cc2)cc1` [Example 650, (R)-4-(2,2-dioxo-1,2,3,4-tetrahydro-2λ^6-pyrazino[2,3-c][1,2,6]thiadiazin-7-yl)-1-(4-trifluoromethoxy-benzenesulfonyl)-piperazine-2-carboxylic acid 4-(1,1-difluoro-propyl)-benzylamide], the 50% inhibitory concentration (IC50) – broadly, the point on the concentration scale where inhibition reaches its midpoint – was 100 to 1000 nM in test [1] (setting [5]) and below 100 nM in test [2] (setting [6]).

Turning to `CCCCc1ccc(CNC(=O)[C@H]2CN(c3nc4cn[nH]c(=O)c4s3)CCN2S(=O)(=O)c2ccc(OC(F)(F)F)cc2)cc1` [Example 841, (R)-4-(7-oxo-6,7-dihydro-thiazolo[4,5-d]pyridazin-2-yl)-1-(4-trifluoromethoxy-benzenesulfonyl)-piperazine-2-carboxylic acid 4-butyl-benzylamide], the IC50 in test [1] (setting [3]) and in test [2] (setting [4]) was below 100 nM throughout.

As to `CC(=O)N1CCN(S(=O)(=O)c2ccc(OC(F)(F)F)cc2)[C@@H](C(=O)NCCc2ccccc2O)C1` [Example 682, (R)-4-acetyl-1-(4-trifluoromethoxy-benzenesulfonyl)-piperazine-2-carboxylic acid [2-(2-hydroxy-phenyl)-ethyl]-amide], the IC50 in test [1] (setting [3]) and in test [2] (setting [4]) was above 1000 nM each time.

For the compound `CC(C)(C)c1ccc(CNC(=O)[C@H]2CN(c3ccnc(O)n3)CCN2S(=O)(=O)c2ccc(OC(F)(F)F)cc2)cc1` [Example 581, (R)-4-(2-hydroxy-pyrimidin-4-yl)-1-(4-trifluoromethoxy-benzenesulfonyl)-piperazine-2-carboxylic acid 4-tert-butyl-benzylamide], the IC50 in test [1] (setting [5]) and in test [2] (setting [6]) was below 100 nM throughout.

For `COc1nsc(N2CCN(S(=O)(=O)c3ccc(OC(F)(F)F)cc3)[C@@H](C(=O)NCc3ccc(C(C)(C)C)cc3)C2)n1` [Example 606, (R)-4-(3-methoxy-[1,2,4]thiadiazol-5-yl)-1-(4-trifluoromethoxy-benzenesulfonyl)-piperazine-2-carboxylic acid 4-tert-butyl-benzylamide], the IC50 in test [1] (setting [5]) and in test [2] (setting [6]) was below 100 nM throughout.

Take `COC(=O)CCC(=O)N1CCN(S(=O)(=O)c2ccc(C(F)(F)F)cc2)[C@@H](C(=O)NCc2ccc(C(C)C)cc2)C1` [Example 173, 4-[(R)-3-(4-isopropyl-benzylcarbamoyl)-4-(4-trifluoromethyl-benzenesulfonyl)-piperazin-1-yl]-4-oxo-butyric acid methyl ester]: the IC50 in test [1] (setting [5]) and in test [2] (setting [6]) was 100 to 1000 nM in each case.

Consider `CC(C)c1ccc(S(=O)(=O)N2CCN(c3nc4c(s3)Cc3ccccc3-4)CC2C(=O)NCc2ccc(C(F)(F)F)cc2)cc1` (stereo not drawn) [Example 155, 4-(8H-indeno[1,2-d]thiazol-2-yl)-1-(4-isopropyl-benzenesulfonyl)-piperazine-2-carboxylic acid 4-trifluoromethyl-benzylamide], for which the half-maximal inhibitory concentration (IC50) in test [1] (setting [5]) and in test [2] (setting [6]) was above 1000 nM throughout.

Turning to `CCC(F)(F)c1ccc(CNC(=O)[C@H]2CN(c3nc4ccncc4s3)CCN2S(=O)(=O)c2ccc(OC(F)(F)F)cc2)cc1` [Example 715, (R)-4-thiazolo[5,4-c]pyridin-2-yl-1-(4-trifluoromethoxy-benzenesulfonyl)-piperazine-2-carboxylic acid 4-(1,1-difluoro-propyl)-benzylamide], the IC50 in test [1] (setting [3]) and in test [2] (setting [4]) was below 100 nM each time.

Regarding `CCCc1ccc(CNC(=O)[C@H]2CN(c3cnc4cncnc4n3)CCN2S(=O)(=O)c2ccc(OC(F)(F)F)c(CCCC(=O)O)c2)cc1` [Example 773, 4-{5-[(R)-2-(4-propyl-benzylcarbamoyl)-4-pteridin-7-yl-piperazine-1-sulfonyl]-2-trifluoromethoxy-phenyl}-butyric acid], the 50% inhibitory concentration (IC50) in test [1] (setting [3]) and in test [2] (setting [4]) was below 100 nM throughout.

Take `CC(C)c1ccc(CNC(=O)[C@H]2CN(C(=O)Cc3nnn[nH]3)CCN2S(=O)(=O)c2ccc(C(F)(F)F)cc2)cc1` [Example 261, (R)-4-(2-1H-tetrazol-5-yl-acetyl)-1-(4-trifluoromethyl-benzenesulfonyl)-piperazine-2-carboxylic acid 4-isopropyl-benzylamide]: the IC50 in test [1] (setting [5]) is above 1000 nM; in test [2] (setting [6]), 100 to 1000 nM.
